{
  "source": "paper PMC5823845",
  "about": "(Bioorganic & Medicinal Chemistry, 2018)",
  "conditions": "Beagle dogs, n = 3",
  "experimental": "intravenous (bolus) injection at a dose level of 0.2 mg/kg. […] Intravenous doses were administered by bolus injection into a cephalic vein at a dose volume of 1 mL/kg. Oral doses were administered by gastric intubation at a dose volume of 5 mL/kg. […] Pharmacokinetic parameters were calculated using the computer program Phoenix WinNonlin version 6.3 (Pharsight Corporation, USA).",
  "data": [
    {"smiles": "CCOc1c(Cl)cc(C(=O)Nc2ccc(C(=O)O)c(C)c2)cc1OC(C)C", "note": "[Compound 56, 4-(3-Chloro-4-ethoxy-5-isopropoxybenzamido)-2-methylbenzoic acid]", "values": [
      {"measurement": "po F", "setting": "0.5 mg/kg iv, 1 mg/kg po", "value": 83, "unit": "%"},
      {"measurement": "iv t1/2", "setting": "0.5 mg/kg iv", "value": 9.2, "unit": "h"},
      {"measurement": "po Cmax", "setting": "1 mg/kg po", "value": 2050, "unit": "ng/mL"},
      {"measurement": "po Tmax", "setting": "1 mg/kg po", "value": 0.5, "unit": "h"}
    ]}
  ]
}
